“And” between values parts separate entries of the source, which are not always exact repeats. Equal values may be shown once.
Key:
[1] = test system: PAN-induced nephropathy in male Wistar rats; test: PAN-induced nephropathy rat model: proteinuria (urine protein:creatinine ratio); assay type: in vivo; settings: Day 11, Pio 10 mg/kg or GQ-16 40 mg/kg daily oral gavage; for Urinary protein/creatinine ratio (UPCr): PAN 50 mg/kg IV
Procedure: (§1) This study was approved by the Institution Animal Care and Use Committee at Nationwide Children's Hospital, and their guidelines were followed when performing the experiments. Male Wistar rats were intravenously (IV) injected with puromycin aminonucleoside (PAN) (Sigma-Aldrich, St. Louis, Mo.) (50 mg/kg) on Day 0, which induced proteinuria, while control rats were given IV injections of saline. The rats were treated by oral gavage with Pioglitazone (Alfa Aesar, Tewksbury, Mass.) (10 mg/kg), GQ-16 (40 mg/kg), or a sham vehicle daily. GQ-16 and Pio dosages were determined based on previous studies, and GQ-16 was synthesized as previously described. Amato et al., The Journal of biological chemistry, 287: 28169-28179 (2012). Spot urine and serum were collected, and body weights were recorded throughout the study. […] Kerlin et al., Journal of the American Society of Nephrology: JASN, 26: 3009-3019 (2015). Kidneys were harvested, and the glomeruli were isolated using the sequential sieving method. Agrawal et al., Sci Rep, 6: 24392 (2016). Liver and white adipose tissue (WAT) epididymal fat were collected and flash frozen in liquid nitrogen.
Urine was collected from rats daily throughout the study and resolved using sodium dodecyl sulfate-polyacrylamide gel electrophoresis (SDS-PAGE) on an 8% gel and stained with Coomassie Brilliant Blue G-250 (Alfa Aesar, Tewksbury, MA) to visualize the albumin bands. Urine protein:creatinine ratio (UPCr) analyses were performed on urine samples from Day 11 at the time of peak proteinuria by Antech Diagnostics GLP (Morrisville, N.C.) to quantify the proteinuria values.

[2] = test system: PAN-induced nephropathy in male Wistar rats; test: Serum chemistry (albumin, cholesterol) in PAN-nephrotic rats; assay type: in vivo, rat; settings: for mean reduction of PAN-induced hypercholesterolemia / serum total cholesterol: Day 11; for serum albumin: Day 11, Pio 10 mg/kg or GQ-16 40 mg/kg daily
Procedure: as §1
Serum albumin and cholesterol were measured using the ACE® albumin and cholesterol reagents (Alfa Wasserman Diagnostic Technologies, LLC, West Caldwell, NJ) on the Vet Axcel (Alfa Wasserman Diagnostic Technologies, LLC, West Caldwell, NJ) at the Clinical Pathology Services, The Ohio State University's College of Veterinary Medicine, according to the manufacturer's instructions.

[3] = test system: thrombin generation; test: Thrombin generation assay (TGA) on platelet poor plasma of rats; assay type: in vivo, rat; settings: PAN rats, plasma Day 11; for ETP (endogenous thrombin potential): Pio 10 mg/kg or GQ-16 40 mg/kg daily
Procedure: as §1
Thrombin generation assays (TGA) were performed using the Technothrombin® TGA Kit (Technoclone, Vienna, Austria) and Reagent C (RC) Low on PPP samples collected from the rats to determine various parameters such as the endogenous thrombin potential (ETP) and peak thrombin concentration. These assays were performed at least in duplicate on various rat groups (n=4-7/group). Briefly, PPP at 1:1 ratio with buffer was added to black well plates, and RC Low added. Then TGA substrate was added just before reading on a Spectramax M2 Fluorescent Plate Reader (Molecular Devices, San Jose, CA).

[4] = test system: glomerular gene expression (Nphs1, Nrf2, Trpc6, Pparg); test: Glomerular gene expression by qRT-PCR; assay type: in vivo, rat; settings: PAN rats
Procedure: as §1
(§2) Total RNA was extracted from isolated WAT epididymal fat and liver tissue samples using the RNeasy kit (Qiagen, Germantown, MD), following the manufacturer's instructions. Tissue samples in lysis buffer were placed in lock tubes with stainless-steel disruption beads and lysed at 30.0 Hz for 4 minutes using the Qiagen TissueLyser (Germantown, MD), followed by RNA isolation from the resulting lysate. Total RNA was isolated from glomeruli tissue samples using the mirVana™ Isolation Kit (Invitrogen, Carlsbad, CA), according to the manufacturer's instructions. Yield and purity were calculated for all isolated RNA samples by measuring the absorbance at 260, 280, and 230 nm and the ratios (both) with a spectrophotometer. 500 ng-1 μg of RNA was subjected to DNase (Invitrogen, Carlsbad, CA) digestion at room temperature for 15 minutes, which was then inactivated with 25 mM EDTA at 65° C. for 10 min. RNA was reverse transcribed using the iScript cDNA Synthesis Kit (Bio-Rad, Hercules, CA) according to the manufacturer's instructions. cDNA was used for quantitative reverse transcription-polymerase chain reaction (qRT-PCR) using gene specific and house-keeping primers. SYBR green (Bio-Rad, Hercules, Calif.) qRT-PCR was performed on the Applied Biosystems 7500 Real-Time PCR System. The PCR conditions were 95° C. for 10 minutes, 40× (95° C. for 15 seconds, 60° C. for 1 minute), followed by a melt curve to ensure specific products. The annealing temperature was at 60° C. for all genes except Pgc1a, Pparg, and Cd36 for which 52° C. annealing temperature was used. […]

[5] = test system: hepatic gene expression (Pcsk9, Abca1, F2, SerpinC1); test: Hepatic gene expression by qRT-PCR; assay type: in vivo, rat
Procedure: as §1, §2

[6] = test system: white adipose tissue gene expression (Ap2, Adipoq, Adipsin, Cd36, Pgc1a, Pparg); test: White adipose tissue (epididymal fat) gene expression by qRT-PCR; assay type: in vivo, rat; settings: PAN rats
Procedure: as §1
Total RNA was extracted from isolated WAT epididymal fat and liver tissue samples using the RNeasy kit (Qiagen, Germantown, MD), following the manufacturer's instructions. Tissue samples in lysis buffer were placed in lock tubes with stainless-steel disruption beads and lysed at 30.0 Hz for 4 minutes using the Qiagen TissueLyser (Germantown, MD), followed by RNA isolation from the resulting lysate. Total RNA was isolated from glomeruli tissue samples using the mirVana™ Isolation Kit (Invitrogen, Carlsbad, CA), according to the manufacturer's instructions. Yield and purity were calculated for all isolated RNA samples by measuring the absorbance at 260, 280, and 230 nm and the ratios (both) with a spectrophotometer. 500 ng-1 μg of RNA was subjected to DNase (Invitrogen, Carlsbad, CA) digestion at room temperature for 15 minutes, which was then inactivated with 25 mM EDTA at 65° C. for 10 min. RNA was reverse transcribed using the iScript cDNA Synthesis Kit (Bio-Rad, Hercules, CA) according to the manufacturer's instructions. cDNA was used for quantitative reverse transcription-polymerase chain reaction (qRT-PCR) using gene specific and house-keeping primers. SYBR green (Bio-Rad, Hercules, Calif.) qRT-PCR was performed on the Applied Biosystems 7500 Real-Time PCR System. The PCR conditions were 95° C. for 10 minutes, 40× (95° C. for 15 seconds, 60° C. for 1 minute), followed by a melt curve to ensure specific products. The annealing temperature was at 60° C. for all genes except Pgc1a, Pparg, and Cd36 for which 52° C. annealing temperature was used. The melt curve conditions were 95° C. for 15 seconds, 60° C. for 1 minute, 30 seconds incremental increase to 95° C. and 60° C. for 15 seconds. The ΔΔCt method was used to analyze the results, including normalization to housekeeping genes (Rpl6 44 for glomeruli, Ppia 45, 46 for fat and liver). Pfaffl, M W, Nucleic acids research, 29: e45, 2001. Due to melt curve variation for Trpc6, amplified samples were also resolved on a 2% agarose gel, and densitometry was performed using ImageJ (National Institutes of Health, Bethesda, MD) software. Each gene was tested in triplicates for each tissue on at least three different rats per group.

[7] = molecular target: T1, P-PPARγ (Ser273) (Rattus norvegicus, UniProt O88275); test: Western blot of glomerular P-PPARγ (Ser273) / total PPARγ; assay type: in vivo; settings: PAN-nephrotic rats
T1 construct: To isolate protein from the glomeruli, liver, and fat tissues, the samples were lysed; from tissue; host or cells: glomeruli isolated from kidneys of male Wistar rats
T1 sequence (O88275 1-505): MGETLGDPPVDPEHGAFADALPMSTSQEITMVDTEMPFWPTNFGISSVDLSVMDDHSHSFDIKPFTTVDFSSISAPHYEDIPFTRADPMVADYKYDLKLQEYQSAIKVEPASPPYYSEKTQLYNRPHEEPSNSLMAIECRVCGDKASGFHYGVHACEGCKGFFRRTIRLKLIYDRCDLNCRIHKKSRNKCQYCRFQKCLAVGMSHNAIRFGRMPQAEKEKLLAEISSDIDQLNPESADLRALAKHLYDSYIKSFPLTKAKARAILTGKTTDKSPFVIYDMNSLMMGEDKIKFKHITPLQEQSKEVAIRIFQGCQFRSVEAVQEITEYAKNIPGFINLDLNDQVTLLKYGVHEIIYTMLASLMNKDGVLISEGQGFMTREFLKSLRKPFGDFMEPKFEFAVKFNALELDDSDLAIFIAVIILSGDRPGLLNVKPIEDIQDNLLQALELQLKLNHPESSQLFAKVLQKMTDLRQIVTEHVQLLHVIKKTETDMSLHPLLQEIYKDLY
Procedure: Male Wistar rats were intravenously (IV) injected with puromycin aminonucleoside (PAN) (Sigma-Aldrich, St. Louis, Mo.) (50 mg/kg) on Day 0, which induced proteinuria, while control rats were given IV injections of saline. The rats were treated by oral gavage with Pioglitazone (Alfa Aesar, Tewksbury, Mass.) (10 mg/kg), GQ-16 (40 mg/kg), or a sham vehicle daily. […] Spot urine and serum were collected, and body weights were recorded throughout the study. […] Kidneys were harvested, and the glomeruli were isolated using the sequential sieving method.
To isolate protein from the glomeruli, liver, and fat tissues, the samples were lysed in a lock tube with RIPA buffer (1M Tris HCl, 0.5M EDTA, 5M NaCl, 10% SDS) containing protease inhibitor cocktail (Thermo Scientific, Waltham, MA) and phosphatase inhibitor cocktail (Alfa Aesar, Tewksbury, MA) and a stainless-steel disruption bead using a Qiagen TissueLyser (Germantown, Md.). Following lysis/homogenization at 30.0 Hz for 4 minutes (liver and fat) or 1 minute (glomeruli), samples were centrifuged for 10 minutes at 4° C. at 12,000 rpm. The supernatant was collected, and the proteins were resolved by SDS-PAGE and transferred to an Immobilon-P polyvinylidene difluoride (PVDF) Transfer Membrane (Millipore Sigma, St. Louis, MO). […] Protein bands were detected by chemiluminescence using the Chemidoc MP Imaging System (Bio-Rad, Hercules, CA). […]

[8] = Body weight in PAN-nephrotic rats; assay type: in vivo, rat
Procedure: as §1

[9] = molecular target: T2, PPARγ (Homo sapiens, UniProt P37231); settings: cited from earlier work
T2 sequence (P37231 1-505): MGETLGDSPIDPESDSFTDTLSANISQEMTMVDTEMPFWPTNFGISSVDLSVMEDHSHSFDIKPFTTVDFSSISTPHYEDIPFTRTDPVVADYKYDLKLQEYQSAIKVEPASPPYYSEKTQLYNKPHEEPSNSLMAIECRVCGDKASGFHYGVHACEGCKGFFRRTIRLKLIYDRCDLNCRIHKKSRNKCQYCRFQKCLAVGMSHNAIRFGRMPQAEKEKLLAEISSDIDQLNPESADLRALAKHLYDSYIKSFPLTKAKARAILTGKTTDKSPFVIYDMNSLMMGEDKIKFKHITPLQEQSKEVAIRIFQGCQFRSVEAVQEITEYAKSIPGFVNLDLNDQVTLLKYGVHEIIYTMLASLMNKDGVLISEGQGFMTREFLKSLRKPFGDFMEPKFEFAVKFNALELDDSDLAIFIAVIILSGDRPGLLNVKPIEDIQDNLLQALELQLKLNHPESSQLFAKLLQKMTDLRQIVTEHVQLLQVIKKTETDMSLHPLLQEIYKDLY

[10] = molecular target: T3, PPARγ phosphorylation at Ser273 (Homo sapiens, UniProt P37231); settings: in vitro assay; cited from earlier work
T3 sequence (P37231 1-505): T2 sequence (P37231 1-505)

[11] = test system: diabetic mice; settings: in the absence of weight gain and edema; cited from earlier work
[12] = test system: thrombin generation; settings: previous study; cited from earlier work
[13] = in vivo; cited from earlier work

Structure (SMILES)	Urinary protein/creatinine ratio (UPCr) [1] [mg/mg]	mean reduction in PAN-induced proteinuria [1]	mean reduction of PAN-induced hypercholesterolemia [2] [%]	serum total cholesterol [2] [mg/dL]	serum albumin [2] [g/dL]	Lag Phase [3] [min]	Peak Thrombin [3] [nM]	Velocity Index [3] [nM/min]	ETP (endogenous thrombin potential) [3] [nM·min]	WAT Ap2 (Fabp4) expression [6] [fold]	body weight (weight reduction of nephrotic rats) [8]	other results
COc1ccc(Br)cc1/C=C1\SC(=O)N(Cc2ccc(C)cc2)C1=O [GQ-16, 5-(5-bromo-2-methoxy-benzylidine)-3-(4-methyl-benzyl)-thiazolidine-2,4-dione]	8.01 ± 3.54	84% and 81%	86	93.14 ± 13.36	2.64 ± 0.15	9.250 ± 1.532	134.0 ± 35.54	19.91 ± 6.643	2544 ± 489.0	~2.2	maintained	glomerular Nphs1 expression ([4]; vs PAN): significantly restored; glomerular Nrf2 expression ([4]; vs PAN): marked restoration; glomerular Pparg expression ([4]; not significant (p=0.06)): somewhat increased; glomerular Trpc6 expression ([4]; trend only): reduction; hepatic Pcsk9 expression ([5]; PAN rats (PAN ~30 fold up)): restored to control levels; hepatic F2 expression ([5]; PAN rats, tendency, p=0.07): reduced; hepatic SerpinC1 expression ([5]; PAN rats, tendency, p=0.07): reduced; hepatic Abca1 expression ([5]; PAN rats, trend, p=0.057): ~23 fold; WAT Adipoq expression [6]: induced more robustly; WAT Adipsin (Cfd) expression [6]: induced more robustly; WAT Cd36 expression [6]: no significant differences; WAT Pgc1a expression [6]: trend in increase; WAT Pparg expression [6]: induced; WAT Δ exon 5 splice variant of Pparg, normalized to total Pparg [6]: further reduced; phosphorylation status of PPARγ at Ser273 (glomeruli) [7]: unaltered; Ki [9]: 160 nM; receptor phosphorylation at Ser273 [10]: block; insulin sensitivity [11]: improve
CCc1ccc(CCOc2ccc(CC3SC(=O)NC3=O)cc2)nc1 (stereo not shown) [Pio, pioglitazone, reference compound]	13.17 ± 5.51	64%	80	97.86 ± 12.37	2.34 ± 0.14	7.714 ± 0.6974	180.8 ± 29.50	34.67 ± 8.448	3509 ± 427.8	~3.4	did not show any significant difference from control rats	ETP in healthy control rats [12]: significantly increased; half-life [13]: 8 to 9 h; time of peak (systemic) [13]: 1.5 to 2 h
